These results are taken from patent US20100286247A1, “Methods of Protection from Oxidative Stress” (Trustees of Boston University, priority 2005, published 2010).

{P} = phosphate

One series has as its system CAT mRNA. The series can be described thus: Northern blot analysis of antioxidant enzyme mRNA: CAT. The series is classed as cell-based, human. The note with it: 100 μM pTT, 8-72 hours. Here is the method:
Cell culture followed previously published methods.^92 Primary human newborn dermal fibroblasts were cultured from neonatal circumcised foreskin specimens. The skin samples were treated overnight in a 0.25% trypsin solution at 4° C. to separate the epidermis from the dermis. The separated dermis was then cut into pieces and plated onto etched plastic tissue culture dishes. Primary culture medium consisted of DMEM supplemented with 10% bovine CS, 50 U/ml penicillin and 50 μg/ml streptomycin sulfate. […] Secondary culture medium consisted of DMEM supplemented with 10% CS.
Purified 5′-phosphorylated thymidine dinucleotides (pTT) (Midland Certified Reagents, Inc., Texas) purified by gel filtration and analyzed by mass spectroscopy, were obtained in lyophilized form. […] The stock solution was syringe filter-sterilized through a 0.2 μm pore filter and spectrophotometrically analyzed (absorbance at 260 and 280 nm) to determine the concentration, and frozen in aliquots at −20° C. […]
Cells were harvested in Trizol (Gibco BRL, Gaithersburg, Md.) and stored at −70° C. […] RNA solutions were measured by spectrophotometer readings at 260 nm and 280 nm to determine concentration and purity. […]
Northern and western films as well as stained membranes and pictures of ethidium bromide-stained gels were digitally scanned and analyzed by densitometry. […]

The next series relates to SOD1 protein. The experiment in a line: Western blot analysis of antioxidant enzymes: SOD1 protein. Type of series: cell-based, human. Conditions: 40 μM, within several hours, up to 168 hours. The procedure:
Cell lysates were harvested at various intervals after T-oligo treatment in harvest buffer containing 0.25 M Tris HCl (pH 7.5), 0.375 M NaCl, 2.5% sodium deoxycholate, 1% Triton X-100, 25 mM MgCl2, 0.1 mg/ml aprotinin (Sigma, St. Louis, Mo.) and 1 mM phenylmethyl sulfonyl flouride (PMSF) (Sigma). Samples were sheared through a fine needle syringe, sonicated, centrifuged and the supernatant was isolated. Total cellular protein concentrations were determined spectrophotometrically with the Bio-Rad protein assay (Bio-Rad Laboratories, Inc, Hercules, Calif.). Equal amounts of total protein from each sample (35-65 μg) were separated by 10-15% polyacrylamide gel electrophoresis, and transferred to nitrocellulose membranes. […]
Membranes were reacted with antibodies diluted in Tris-based buffer with nonfat milk powder as a blocking agent. […] Antibody binding was detected with electrochemical luminescence (ECL kit, NEN Life Science Products, Inc.) and exposure to XAR film (Eastman Kodak Co.).
The levels of superoxide dismutase 1 (SOD1), superoxide dismutase 2 (SOD2), catalase (Cat) and glutathione peroxidase (GPX) were determined in newborn fibroblasts at different time points after treatment with 40 μM of T-oligo in comparison with cells treated either with 40 μM of control complementary oligo pCTAACCCTAAC (SEQ ID NO: 22) or diluent. […]

Consider “5′-phosphorylated thymidine dinucleotides [pTT]”, for which the “CAT mRNA level compared to diluent” value with CAT mRNA is on record as “remain unchanged”.
On to “pGTTAGGGTTAG (5' {P}, sugars by position and backbone not given here) [TO]”, for which the SOD1 protein level entry with SOD1 protein is reported as “induced”.
